Patent publication US20240408082A1, “METHODS FOR TREATING CANCERS AND TUMORS” (BEYONDSPRING PHARMACEUTICALS, INC., priority 2021, published 2024)
Values joined by “and” are separate entries in the source; they are usually repeats but may differ in a detail not shown here. Identical values can stand only once.

Assays:
Type in all cases: cell-based
[1] = test system: 87 PDX models of various histotypes; experiment: 3D clonogenic assay, Example 1, all PDX models
Protocol: (§1) In the present study, plinabulin was characterized for its ability to inhibit anchorage independent growth and ex vivo colony formation of tumor cells in semi-solid medium. The compound was investigated in 87 out of 93 originally planned tumor xenografts representing all major cancer types using a 3D clonogenic assay in a 96-well format with colony count based on image analysis as read-out. By using this assay, the investigational compound was assessed for the ability to inhibit anchorage independent growth and ex vivo colony formation of tumor cells in semi-solid medium.
(§2) A master stock solution of plinabulin was prepared by dissolving the compound in DMSO at a concentration of 9.9 mM. Working stock solutions were prepared by diluting the master stock solution with DMSO to a concentration of 0.99 mM (330-fold the highest test concentration). Small aliquots of the master and working stock were stored at −20° C. On each day of an experiment, an aliquot of the working stock was used and stored at room temperature prior to and during treatment. All liquid handling steps were performed using a Tecan Freedom EVO 200 robotic platform. First, serial dilutions of the working stock solution were done in DMSO. The DMSO dilutions were then diluted 1:22 into cell culture medium (IMDM, supplemented with 20% (v/v) fetal calf serum, and 50 μg/ml gentamicin) in an intermediate dilution plate. Finally, 10 μl taken from the intermediate dilution plate were transferred to 140 μl/well of the final assay plate. Thus, the DMSO working stock was diluted 1:330, and the DMSO concentration in the assay was 0.3% v/v in all wells.
(§3) Plinabulin was investigated in 87 PDX models representing a number of cancer types. Tumors were passaged as subcutaneous xenografts in NMRI nu/nu mice. At a tumor volume of 400-1000 mm^3 tumor-bearing mice were euthanized and tumors were collected under sterile conditions without delay according to relevant SOPs and the relevant animal welfare guidelines published by the FELASA and the GV-SOLAS. Tumors were mechanically disaggregated and subsequently incubated with an enzyme cocktail consisting of collagenase type IV (41 U/ml), DNase I (125 U/ml), hyaluronidase type III (100 U/ml), and dispase II (1 U/ml) in RPMI 1640 medium (Life Technologies) at 37° C. for 60-120 minutes. Cells were passed through sieves of 100 μm and 40 μm mesh size (Cell Strainer, BD Falcon™), and washed with RPMI 1640 medium (Biochrom). The percentage of viable cells was determined in a Neubauer-hemocytometer using trypan blue exclusion. Aliquots of the cells were frozen down and stored in a liquid nitrogen vapor phase. On each day of an experiment, a frozen aliquot of tumor cells was thawed and used for the preparation of assay plates.
(§4) The clonogenic assay was carried out in a 96 well plate format using ultra low attachment plates. For each test, cells were prepared as described above and assay plates were prepared as follows: each test well contained a layer of semi-solid medium with tumor cells (50 μl), and a second layer of medium supernatant with or without test compound (100 μl). The cell layer consisted of 2.5-12.5×10^3 tumor cells per well, which were seeded on day 0 (d0) in 50 μl/well cell culture medium (IMDM, supplemented with 20% (v/v) fetal calf serum, 50 μg/ml gentamicin, and 0.4% (w/v) agar). After 24 h, the soft-agar layer was covered with 90 μl of the same culture medium without agar. Seven days after seeding 10 μl of test compound or control medium was added, and left on the cells for 24 h. Every 96 well plate included six DMSO-treated control wells and drug-treated wells in duplicate at 9 concentrations. After the incubation time of 24 h the supernatant (90 μl medium without agar +10 μl compound/control) was changed against drug free medium and incubated until the end of the study. Cultures were incubated at 37° C. and 7.5% CO2 in a humidified atmosphere 13 days in total and monitored closely for colony growth using an inverted microscope. […]

small cell lung cancer [2] = experiment: 3D clonogenic assay, Example 1, small cell lung cancer; details: n=7 models
Protocol: as §1
(§5) A master stock solution of plinabulin was prepared by dissolving the compound in DMSO at a concentration of 9.9 mM. Working stock solutions were prepared by diluting the master stock solution with DMSO to a concentration of 0.99 mM (330-fold the highest test concentration). Small aliquots of the master and working stock were stored at −20° C. […]
(§6) Plinabulin was investigated in 87 PDX models representing a number of cancer types. […] The percentage of viable cells was determined in a Neubauer-hemocytometer using trypan blue exclusion. […]
(§7) The clonogenic assay was carried out in a 96 well plate format using ultra low attachment plates. […] Cultures were incubated at 37° C. and 7.5% CO2 in a humidified atmosphere 13 days in total and monitored closely for colony growth using an inverted microscope. […]

bladder cancer = experiment: 3D clonogenic assay, Example 1, bladder cancer; details: n=9 models
Protocol: as §1, §5, §6, §7

soft tissue sarcoma = experiment: 3D clonogenic assay, Example 1, soft tissue sarcoma; details: n=10 models
Protocol: as §1, §5, §6, §7

BXF 1258 = experiment: 3D clonogenic assay, Example 1, BXF 1258; details: model BXF 1258
Protocol: as §1, §5, §6, §7

BXF 2211 = experiment: 3D clonogenic assay, Example 1, BXF 2211; details: model BXF 2211
Protocol: as §1, §5, §6, §7

BXF 2775 = experiment: 3D clonogenic assay, Example 1, BXF 2775; details: model BXF 2775
Protocol: as §1, §5, §6, §7

SXFS 627 = experiment: 3D clonogenic assay, Example 1, SXFS 627; details: model SXFS 627
Protocol: as §1, §5, §6, §7

melanoma models [3] = experiment: 3D clonogenic assay, Example 1, melanoma models; details: n=19 models
Protocol: as §1, §5, §6, §7

[4] = test system: 68 PDX models of various histotypes; experiment: 3D clonogenic assay, Example 2, all PDX models
Protocol: (§8) The present study investigated plinabulin for anticancer activity ex vivo in 68 out of 71 originally planned patient-derived xenograft (PDX) models representing major cancer types. Experiments were performed using a 3D clonogenic assay in a 96-well format with colony count based on image analysis as a read-out. By using this assay, the investigational compound was assessed for the ability to inhibit anchorage independent growth and ex vivo colony formation of tumor cells in semi-solid medium.
as §2, with “1:22 into the cell culture” for “1:22 into cell culture”, “was diluted at 1:330, and” for “was diluted 1:330, and”
as §3, with “68” for “87”
as §4, with “above (Section 6.6)” for “above”, “2.5-12.5·10^3” for “2.5-12.5×10^3”

small cell lung cancer [5] = experiment: 3D clonogenic assay, Example 2, small cell lung cancer; details: n=7 models
Protocol: as §8, §5
(§9) Plinabulin was investigated in 68 PDX models representing a number of cancer types. […] The percentage of viable cells was determined in a Neubauer-hemocytometer using trypan blue exclusion. […]
as §7

osteosarcoma = experiment: 3D clonogenic assay, Example 2, osteosarcoma; details: n=3 models
Protocol: as §8, §5, §9, §7

gastric cancer (Asian) = experiment: 3D clonogenic assay, Example 2, gastric cancer (Asian); details: n=3 models
Protocol: as §8, §5, §9, §7

[6] = test system: central nervous system cancer; experiment: 3D clonogenic assay, Example 2, central nervous system cancer; details: n=6 models
Protocol: as §8, §5, §9, §7

[7] = test system: small cell lung cancer model LXFS 2156; experiment: 3D clonogenic assay, Example 2, LXFS 2156
Protocol: as §8, §5, §9, §7

[8] = test system: small cell lung cancer model LXFS 650; experiment: 3D clonogenic assay, Example 2, LXFS 650
Protocol: as §8, §5, §9, §7

[9] = test system: osteosarcoma model SXFO 1186; experiment: 3D clonogenic assay, Example 2, SXFO 1186
Protocol: as §8, §5, §9, §7

[10] = test system: (Asian) gastric cancer model GXA 3067; experiment: 3D clonogenic assay, Example 2, GXA 3067; details: read-out: abs. IC50
Protocol: as §8, §5, §9, §7

melanoma models [11] = experiment: 3D clonogenic assay, Example 2, melanoma models; details: n=9 models
Protocol: as §8, §5, §9, §7

[12] = test system: Her2-enriched breast cancer models; experiment: 3D clonogenic assay, Example 2, Her2-enriched breast cancer models; details: n=6 models
Protocol: as §8, §5, §9, §7

[13] = test system: soft tissue sarcoma models; experiment: 3D clonogenic assay, Example 2, soft tissue sarcoma models; details: n=8 models
Protocol: as §8, §5, §9, §7

[14] = test system: small cell lung cancer model LXFS 1129; experiment: 3D clonogenic assay, Example 2, LXFS 1129
Protocol: as §8, §5, §9, §7

[15] = test system: Triple negative breast cancer (MAXFTN); experiment: 3D clonogenic assay, Example 2, triple negative breast cancer; details: based on IC70, FIG. 7
Protocol: as §8, §5, §9, §7

bladder cancer models = experiment: 3D clonogenic assay, Example 2, bladder cancer models; details: n=6 models
Protocol: as §8, §5, §9, §7

[16] = test system: gastric cancer models (Caucasian); experiment: 3D clonogenic assay, Example 2, gastric cancer models (Caucasian); details: n=3 models
Protocol: as §8, §5, §9, §7

[17] = sigmoidal concentration-effect curves

Compound: CC(C)(C)c1[nH]cnc1/C=c1\[nH]c(=O)/c(=C/c2ccccc2)[nH]c1=O [plinabulin, (3Z,6Z)-3-Benzylidene-6-{[5-(2-methyl-2-propanyl)-1H-imidazol-4-yl]methylene}-2,5-piperazinedione]
- Sensitive Tumors, Number, Based on Abs. IC70 ([1]; 87 PDX models): 40 out of 87 and 40/87
- Sensitive Tumors, Number, Based on Rel. IC70 ([1]; 87 PDX models): 23/87
- Sensitive Tumors, Percentage, Based on Abs. IC70 ([1]; 87 PDX models): 46%
- Sensitive Tumors, Percentage, Based on Rel. IC70 ([1]; 87 PDX models): 26%
- geometric mean absolute IC70, tumor colony formation ([1]; all 87 PDX models, 24 h treatment, 13 days culture): 0.166 µM
- Fold difference of IC70 of sensitive tumors vs. all tumors, Based on Abs. IC70 ([1]; geometric means): 6.8 fold
- Fold difference of IC70 of sensitive tumors vs. all tumors, Based on Rel. IC70 ([1]; geometric means): 4.6 fold
- inhibition of tumor colony formation (in words) [1, 17]: inhibited tumor colony formation in a concentration-dependent manner in almost all cell lines
- geom. mean absolute IC70 (small cell lung cancer [2]): 0.035 µM
- geom. mean absolute IC70 (bladder cancer): 0.038 µM
- geom. mean absolute IC70 (soft tissue sarcoma): 0.057 µM
- absolute IC70 (BXF 1258): 3 nM
- absolute IC70 (BXF 2211): 3 nM
- absolute IC70 (BXF 2775): 3 nM
- absolute IC70 (SXFS 627): 3 nM
- geometric mean absolute IC70 (melanoma models [3]): 1.105 µM
- Sensitive Tumors, Number, Based on Abs. IC70 ([4]; 68 PDX models): 9 out of 68 and 9/68
- Sensitive Tumors, Number, Based on Rel. IC70 ([4]; 68 PDX models): 27/68
- Sensitive Tumors, Percentage, Based on Abs. IC50 ([4]; 68 PDX models): 35%
- Sensitive Tumors, Percentage, Based on Abs. IC70 ([4]; 68 PDX models): 13%
- Sensitive Tumors, Percentage, Based on Rel. IC50 ([4]; 68 PDX models): 50%
- Sensitive Tumors, Percentage, Based on Rel. IC70 ([4]; 68 PDX models): 40%
- geometric mean absolute IC70, tumor colony formation ([4]; all 68 PDX models, treatment from day 7 to day 8): 1.78 µM
- IC50 ([4]; all 68 PDX models, treatment from day 7 to day 8, read-out: geometric mean absolute IC50, tumor colony formation): 600 nM
- Fold difference of IC50 of sensitive tumors vs. all tumors, Based on Abs. IC50 ([4]; geometric means): 10.7 fold
- Fold difference of IC50 of sensitive tumors vs. all tumors, Based on Rel. IC50 ([4]; geometric means): 3.4 fold
- Fold difference of IC70 of sensitive tumors vs. all tumors, Based on Abs. IC70 ([4]; geometric means): 27.1 fold
- Fold difference of IC70 of sensitive tumors vs. all tumors, Based on Rel. IC70 ([4]; geometric means): 4.6 fold
- inhibition of tumor colony formation (in words) [4, 17]: inhibited tumor colony formation in a concentration-dependent manner in almost all cell lines
- geom. mean abs. IC70 (small cell lung cancer [5]): 0.385 µM
- IC50 (small cell lung cancer [5]; read-out: geom. mean abs. IC50): 74 nM
- geom. mean abs. IC70 (osteosarcoma): 0.624 µM
- IC50 (osteosarcoma; read-out: geom. mean abs. IC50): 117 nM
- geom. mean abs. IC70 (gastric cancer (Asian)): 0.319 µM
- IC50 (gastric cancer (Asian); read-out: geom. mean abs. IC50): 166 nM
- geom. mean abs. IC70 [6]: 1.521 µM
- IC50 ([6]; read-out: geom. mean abs. IC50): 426 nM
- abs. IC70 [7]: 0.015 µM
- IC50 ([7]; read-out: abs. IC50): 7 nM
- abs. IC70 [8]: 0.032 µM
- IC50 ([8]; read-out: abs. IC50): 22 nM
- abs. IC70 [9]: 0.027 µM
- IC50 ([9]; read-out: abs. IC50): 19 nM
- IC50 [10]: 26 nM
- geometric mean absolute IC70 (melanoma models [11]): > 3 µM
- IC50 (melanoma models [11]; read-out: geom. mean abs. IC50): 1370 nM
- geometric mean absolute IC70 [12]: > 3 µM
- IC50 ([12]; read-out: geom. mean abs. IC50): 2250 nM
- geometric mean absolute IC70 [13]: > 3 µM
- IC50 ([13]; read-out: geom. mean abs. IC50): 2580 nM
- abs. IC70 [14]: 0.032 µM
- sensitivity to plinabulin (in words) [15]: sensitive
- geometric mean absolute IC70 (bladder cancer models): > 3 µM
- geometric mean absolute IC70 [16]: > 3 µM
